Reference: ChEMBL document CHEMBL1687747, “Effect of mild and moderate liver disease on the pharmacokinetics of isavuconazole after intravenous and oral administration of a single dose of the prodrug BAL8557” (Antimicrob Agents Chemother, 2009)

Key:
Settings in all cases: in vivo
[1] = tested on: Homo sapiens; experiment: Toxicity in healthy human at 180.5 mg, iv administered as single dose over 2 hrs following overnight fasting; assay type: organism-based
[2] = tested on: Homo sapiens; experiment: Volume of distribution at steady state in of human with mild liver impairment assessed as isavuconazole level at 180.5 mg, iv administered as single dose over 2 hrs following overnight fasting by high-pressure liquid chromatography coupled with tandem mass spectrometry; assay type: ADME, organism-based
[3] = tested on: Homo sapiens; experiment: AUC (0 to infinity) in healthy human plasma assessed as isavuconazole level at 180.5 mg, iv administered as single dose over 2 hrs following overnight fasting by high-pressure liquid chromatography coupled with tandem mass spectrometry; assay type: ADME, organism-based; design: dose 180.5 mg, time infinity, route intravenous
[4] = tested on: Homo sapiens; experiment: Tmax in plasma of human with moderate liver impairment assessed as isavuconazole level at 180.5 mg, po administered as single dose over 2 hrs following overnight fasting by high-pressure liquid chromatography coupled with tandem mass spectrometry; assay type: ADME, organism-based
[5] = tested on: Homo sapiens; experiment: AUC (0 to infinity) in plasma of human with mild liver impairment assessed as isavuconazole level at 180.5 mg, iv administered as single dose over 2 hrs following overnight fasting by high-pressure liquid chromatography coupled with tandem mass spectrometry; assay type: ADME, organism-based; design: dose 180.5 mg, time infinity, route intravenous
[6] = tested on: Homo sapiens; experiment: Toxicity in of human with moderate liver impairment at 180.5 mg, iv administered as single dose over 2 hrs following overnight fasting; assay type: organism-based
[7] = tested on: Homo sapiens; experiment: Cmax in healthy human plasma assessed as isavuconazole level at 180.5 mg, po administered as single dose over 2 hrs following overnight fasting by high-pressure liquid chromatography coupled with tandem mass spectrometry by HPLC-tandem mass spectrometry; assay type: ADME, organism-based; design: dose 180.5 mg, route oral
[8] = tested on: Homo sapiens; experiment: Oral clearance in healthy human plasma assessed as isavuconazole level at 180.5 mg, po administered as single dose over 2 hrs following overnight fasting by high-pressure liquid chromatography coupled with tandem mass spectrometry; assay type: ADME, organism-based
[9] = tested on: Homo sapiens; experiment: AUC (0 to t) in healthy human at 180.5 mg, iv administered as single dose over 2 hrs following overnight fasting by high-pressure liquid chromatography coupled with tandem mass spectrometry; assay type: ADME, organism-based, Plasma; design: time < 2 hr, dose 180.5 mg, route intravenous
[10] = tested on: Homo sapiens; experiment: AUC (0 to infinity) in healthy human plasma assessed as isavuconazole level at 180.5 mg, po administered as single dose over 2 hrs following overnight fasting by high-pressure liquid chromatography coupled with tandem mass spectrometry; assay type: ADME, organism-based; design: dose 180.5 mg, route oral, time infinity
[11] = tested on: Homo sapiens; experiment: Terminal half life in human with mild liver impairment assessed as isavuconazole level at 180.5 mg, po administered as single dose over 2 hrs following overnight fasting by high-pressure liquid chromatography coupled with tandem mass spectrometry; assay type: ADME, organism-based
[12] = tested on: Homo sapiens; experiment: Systemic clearance in plasma of human with mild liver impairment assessed as isavuconazole level at 180.5 mg, iv administered as single dose over 2 hrs following overnight fasting by high-pressure liquid chromatography coupled with tandem mass spectrometry; assay type: ADME, organism-based
[13] = tested on: Homo sapiens; experiment: AUC (0 to infinity) in plasma of human with mild liver impairment assessed as isavuconazole level at 180.5 mg, po administered as single dose over 2 hrs following overnight fasting by high-pressure liquid chromatography coupled with tandem mass spectrometry; assay type: ADME, organism-based; design: dose 180.5 mg, route oral, time infinity
[14] = tested on: Homo sapiens; experiment: Volume of distribution at steady state in healthy human assessed as isavuconazole level at 180.5 mg, po administered as single dose over 2 hrs following overnight fasting by high-pressure liquid chromatography coupled with tandem mass spectrometry; assay type: ADME, organism-based
[15] = tested on: Homo sapiens; experiment: Toxicity in of human with moderate liver impairment at 180.5 mg, po administered as single dose over 2 hrs following overnight fasting; assay type: organism-based
[16] = tested on: Homo sapiens; experiment: Terminal half life in human with mild liver impairment assessed as isavuconazole level at 180.5 mg, iv administered as single dose over 2 hrs following overnight fasting by high-pressure liquid chromatography coupled with tandem mass spectrometry; assay type: ADME, organism-based
[17] = tested on: Homo sapiens; experiment: Toxicity in of human with mild liver impairment at 180.5 mg, po administered as single dose over 2 hrs following overnight fasting; assay type: organism-based
[18] = tested on: Homo sapiens; experiment: Terminal half life in healthy human assessed as isavuconazole level at 180.5 mg, iv administered as single dose over 2 hrs following overnight fasting by high-pressure liquid chromatography coupled with tandem mass spectrometry; assay type: ADME, organism-based
[19] = tested on: Homo sapiens; experiment: Volume of distribution at steady state in healthy human assessed as isavuconazole level at 180.5 mg, iv administered as single dose over 2 hrs following overnight fasting by high-pressure liquid chromatography coupled with tandem mass spectrometry; assay type: ADME, organism-based
[20] = tested on: Homo sapiens; experiment: Terminal half life in human with moderate liver impairment assessed as isavuconazole level at 180.5 mg, iv administered as single dose over 2 hrs following overnight fasting by high-pressure liquid chromatography coupled with tandem mass spectrometry; assay type: ADME, organism-based
[21] = tested on: Homo sapiens; experiment: Cmax in plasma of human with moderate liver impairment assessed as isavuconazole level at 180.5 mg, po administered as single dose over 2 hrs following overnight fasting by high-pressure liquid chromatography coupled with tandem mass spectrometry by HPLC-tandem mass spectrometry; assay type: ADME, organism-based; design: dose 180.5 mg, route oral
[22] = tested on: Homo sapiens; experiment: Toxicity in healthy human at 180.5 mg, po administered as single dose over 2 hrs following overnight fasting; assay type: organism-based
[23] = tested on: Homo sapiens; experiment: Terminal half life in human with moderate liver impairment assessed as isavuconazole level at 180.5 mg, po administered as single dose over 2 hrs following overnight fasting by high-pressure liquid chromatography coupled with tandem mass spectrometry; assay type: ADME, organism-based
[24] = tested on: Homo sapiens; experiment: Systemic clearance in plasma of human with moderate liver impairment assessed as isavuconazole level at 180.5 mg, iv administered as single dose over 2 hrs following overnight fasting by high-pressure liquid chromatography coupled with tandem mass spectrometry; assay type: ADME, organism-based
[25] = tested on: Homo sapiens; experiment: Volume of distribution at steady state in of human with moderate liver impairment assessed as isavuconazole level at 180.5 mg, iv administered as single dose over 2 hrs following overnight fasting by high-pressure liquid chromatography coupled with tandem mass spectrometry; assay type: ADME, organism-based
[26] = tested on: Homo sapiens; experiment: AUC (0 to t) in human with moderate liver impairment at 180.5 mg, iv administered as single dose over 2 hrs following overnight fasting by high-pressure liquid chromatography coupled with tandem mass spectrometry; assay type: ADME, organism-based; design: dose 180.5 mg, time < 2 hr, route intravenous
[27] = tested on: Homo sapiens; experiment: AUC (0 to infinity) in plasma of human with moderate liver impairment assessed as isavuconazole level at 180.5 mg, po administered as single dose over 2 hrs following overnight fasting by high-pressure liquid chromatography coupled with tandem mass spectrometry; assay type: ADME, organism-based; design: dose 180.5 mg, route oral, time infinity
[28] = tested on: Homo sapiens; experiment: AUC (0 to infinity) in plasma of human with moderate liver impairment assessed as isavuconazole level at 180.5 mg, iv administered as single dose over 2 hrs following overnight fasting by high-pressure liquid chromatography coupled with tandem mass spectrometry; assay type: ADME, organism-based; design: dose 180.5 mg, route intravenous, time infinity
[29] = tested on: Homo sapiens; experiment: Systemic clearance in healthy human plasma assessed as isavuconazole level at 180.5 mg, iv administered as single dose over 2 hrs following overnight fasting by high-pressure liquid chromatography coupled with tandem mass spectrometry; assay type: ADME, organism-based
[30] = tested on: Homo sapiens; experiment: Cmax in healthy human plasma assessed as isavuconazole level at 180.5 mg, iv administered as single dose over 2 hrs following overnight fasting by high-pressure liquid chromatography coupled with tandem mass spectrometry by HPLC-tandem mass spectrometry; assay type: ADME, organism-based; design: dose 180.5 mg, route intravenous
[31] = tested on: Homo sapiens; experiment: Cmax in plasma of human with mild liver impairment assessed as isavuconazole level at 180.5 mg, iv administered as single dose over 2 hrs following overnight fasting by high-pressure liquid chromatography coupled with tandem mass spectrometry by HPLC-tandem mass spectrometry; assay type: ADME, organism-based; design: dose 180.5 mg, route intravenous
[32] = tested on: Homo sapiens; experiment: AUC (0 to t) in healthy human assessed as metabolite BAL8728 level at 180.5 mg, iv administered as single dose over 2 hrs following overnight fasting by high-pressure liquid chromatography coupled with tandem mass spectrometry; assay type: ADME, organism-based, Plasma; design: dose 180.5 mg, time < 2 hr, route intravenous
[33] = tested on: Homo sapiens; experiment: AUC (0 to t) in human with mild liver impairment at 180.5 mg, iv administered as single dose over 2 hrs following overnight fasting by high-pressure liquid chromatography coupled with tandem mass spectrometry; assay type: ADME, organism-based; design: time < 2 hr, dose 180.5 mg, route intravenous
[34] = tested on: Homo sapiens; experiment: Volume of distribution at steady state in of human with mild liver impairment assessed as isavuconazole level at 180.5 mg, po administered as single dose over 2 hrs following overnight fasting by high-pressure liquid chromatography coupled with tandem mass spectrometry; assay type: ADME, organism-based
[35] = tested on: Homo sapiens; experiment: Toxicity in of human with mild liver impairment at 180.5 mg, iv administered as single dose over 2 hrs following overnight fasting; assay type: organism-based
[36] = tested on: Homo sapiens; experiment: AUC (0 to t) in human with mild liver impairment assessed as metabolite BAL8728 level at 180.5 mg, iv administered as single dose over 2 hrs following overnight fasting by high-pressure liquid chromatography coupled with tandem mass spectrometry; assay type: ADME, organism-based; design: dose 180.5 mg, time < 2 hr, route intravenous
[37] = tested on: Homo sapiens; experiment: Oral clearance in plasma of human with mild liver impairment assessed as isavuconazole level at 180.5 mg, po administered as single dose over 2 hrs following overnight fasting by high-pressure liquid chromatography coupled with tandem mass spectrometry; assay type: ADME, organism-based
[38] = tested on: Homo sapiens; experiment: Terminal half life in healthy human assessed as isavuconazole level at 180.5 mg, po administered as single dose over 2 hrs following overnight fasting by high-pressure liquid chromatography coupled with tandem mass spectrometry; assay type: ADME, organism-based
[39] = tested on: Homo sapiens; experiment: Tmax in plasma of human with mild liver impairment assessed as isavuconazole level at 180.5 mg, po administered as single dose over 2 hrs following overnight fasting by high-pressure liquid chromatography coupled with tandem mass spectrometry; assay type: ADME, organism-based
[40] = tested on: Homo sapiens; experiment: Oral clearance in plasma of human with moderate liver impairment assessed as isavuconazole level at 180.5 mg, po administered as single dose over 2 hrs following overnight fasting by high-pressure liquid chromatography coupled with tandem mass spectrometry; assay type: ADME, organism-based
[41] = tested on: Homo sapiens; experiment: Tmax in healthy human plasma assessed as isavuconazole level at 180.5 mg, po administered as single dose over 2 hrs following overnight fasting by high-pressure liquid chromatography coupled with tandem mass spectrometry; assay type: ADME, organism-based
[42] = tested on: Homo sapiens; experiment: Volume of distribution at steady state in of human with moderate liver impairment assessed as isavuconazole level at 180.5 mg, po administered as single dose over 2 hrs following overnight fasting by high-pressure liquid chromatography coupled with tandem mass spectrometry; assay type: ADME, organism-based
[43] = tested on: Homo sapiens; experiment: Cmax in plasma of human with mild liver impairment assessed as isavuconazole level at 180.5 mg, po administered as single dose over 2 hrs following overnight fasting by high-pressure liquid chromatography coupled with tandem mass spectrometry by HPLC-tandem mass spectrometry; assay type: ADME, organism-based; design: dose 180.5 mg, route oral
[44] = tested on: Homo sapiens; experiment: Cmax in plasma of human with moderate liver impairment assessed as isavuconazole level at 180.5 mg, iv administered as single dose over 2 hrs following overnight fasting by high-pressure liquid chromatography coupled with tandem mass spectrometry by HPLC-tandem mass spectrometry; assay type: ADME, organism-based; design: dose 180.5 mg, route intravenous
[45] = tested on: Homo sapiens; experiment: AUC (0 to t) in human with moderate liver impairment assessed as metabolite BAL8728 level at 180.5 mg, iv administered as single dose over 2 hrs following overnight fasting by high-pressure liquid chromatography coupled with tandem mass spectrometry; assay type: ADME, organism-based; design: dose 180.5 mg, time < 2 hr, route intravenous

CNCC(=O)OCc1cccnc1N(C)C(=O)OC(C)[n+]1cnn(C[C@](O)(c2cc(F)ccc2F)[C@@H](C)c2nc(-c3ccc(C#N)cc3)cs2)c1.Cl.[Cl-] (stereo not given in full)
Activity [1]: Non-toxic | Vdss [2]: 492 L | AUC [3]: 39 µg/h/mL | Tmax [4]: 2.6 h | AUC [5]: 72 µg/h/mL | Activity [6]: Non-toxic | Cmax [7]: 0.84 µg/mL | CL [8]: 2.38 L/h | AUC [9]: 0.195 µg/h/mL | AUC [10]: 45 µg/h/mL | beta t1/2 [11]: 292 h | CL [12]: 1.93 L/h | AUC [13]: 98 µg/h/mL | Vdss [14]: 475 L | Activity [15]: Non-toxic | beta t1/2 [16]: 224 h | Activity [17]: Non-toxic | beta t1/2 [18]: 123 h | Vdss [19]: 422 L | beta t1/2 [20]: 302 h | Cmax [21]: 0.47 µg/mL | Activity [22]: Non-toxic | beta t1/2 [23]: 240 h | CL [24]: 1.43 L/h | Vdss [25]: 471 L | AUC [26]: 0.433 µg/h/mL | AUC [27]: 62 µg/h/mL | AUC [28]: 101 µg/h/mL | CL [29]: 2.73 L/h | Cmax [30]: 1.09 µg/mL | Cmax [31]: 0.98 µg/mL | AUC [32]: 0.606 µg/h/mL | AUC [33]: 0.375 µg/h/mL | Vdss [34]: 485 L | Activity [35]: Non-toxic | AUC [36]: 0.685 µg/h/mL | CL [37]: 1.26 L/h | beta t1/2 [38]: 148 h | Tmax [39]: 2.7 h | CL [40]: 1.82 L/h | Tmax [41]: 2.4 h | Vdss [42]: 598 L | Cmax [43]: 0.73 µg/mL | Cmax [44]: 0.84 µg/mL | AUC [45]: 0.583 µg/h/mL
